Patent US20230146455A1, “TREATMENT OF INFLAMMATORY DISEASES WITH PEPTIDES AND PHARMACEUTICAL COMPOSITIONS” (Yuyu Pharma, Inc., priority 2020, published 2023)
Several values for one entry are separate records, joined by “and”; a condition that tells them apart may be missing. Equal entries are not always repeated. Where a SMILES comes first, the peptide text is derived from it. [ ]: non-standard residue; d: D form. Hyp = O=C(O)[C@@H]1C[C@@H](O)CN1

System: IL-17A
Assay: Example 9 Luminex, LPS hPBMCs: IL-17A
Format: cell-based, human
Method: Treatment Human PBMCs were pretreated with YY-101, YDE-011 and YDE-043 or reference compound; Xiidra® at various concentration (ranging from 1 nM to 100 uM) for 2 h before stimulation. An equal volume of 0.5% DMSO was used as a vehicle control. Then, the cells were treated with LPS at 5 ug/ml. The supernatants from treated cells were harvested at 24 h and placed in a 96 well for Luminex cytokine & chemokine profiling using a Luminex 200 multiplex assay (Luminex; R&D system, USA).
The main study arm with triplicate wells per group in a 24-well plate: • 1. Blank • 2. PBMC: 0.5% DMSO • 3. PBMC+LPS (5 ug/ml) • 4. PBMC+YY-101 100 uM • 5. PBMC+YY-101 10 uM • 6. PBMC+YY-101 1 uM • 7. PBMC+YY-101 0.1 uM • 8. PBMC+YY-101 0.01 uM • 9. PBMC+LPS (5 ug/ml)+Xiidra®100 uM • 10. PBMC+LPS (5 ug/ml)+Xiidra® 10 uM • 11. PBMC+LPS (5 ug/ml)+Xiidra® 1 uM • 12. PBMC+LPS (5 ug/ml)+Xiidra®0.1 uM • 13. PBMC+LPS (5 ug/ml)+Xiidra®0.01 uM • 14. PBMC+LPS (5 ug/ml)+Xiidra®0.001 uM • 15. PBMC+LPS (5 ug/ml)+YY-101 100 uM • 16. PBMC+LPS (5 ug/ml)+YY-101 10 uM • 17. PBMC+LPS (5 ug/ml)+YY-101 1 uM • 18. PBMC+LPS (5 ug/ml)+YY-101 0.1 uM • 19. PBMC+LPS (5 ug/ml)+YY-101 0.01 uM • 20. PBMC+LPS (5 ug/ml)+YY-101 0.001 uM • 21. PBMC+LPS (5 ug/ml)+YDE-011 100 uM • 22. PBMC+LPS (5 ug/ml)+YDE-011 10 uM • 23. PBMC+LPS (5 ug/ml)+YDE-011 1 uM • 24. PBMC+LPS (5 ug/ml)+YDE-011 0.1 uM • 25. PBMC+LPS (5 ug/ml)+YDE-011 0.01 uM • 26. PBMC+LPS (5 ug/ml)+YDE-011 0.001 uM • 27. PBMC+LPS (5 ug/ml)+YDE-043 100 uM • 28. PBMC+LPS (5 ug/ml)+YDE-043 10 uM • 29. PBMC+LPS (5 ug/ml)+YDE-043 1 uM • 30. PBMC+LPS (5 ug/ml)+YDE-043 0.1 uM • 31. PBMC+LPS (5 ug/ml)+YDE-043 0.01 uM • 32. PBMC+LPS (5 ug/ml)+YDE-043 0.001 uM
Multiplex assay was used to measure 30 cytokines and chemokines. The 1:2, 1:10 and 1:200 diluted cell supernatant and serial dilution of the standard were dispensed into a 96 well plate at 50 ul/well. Then, the pre-mixed cocktail of antibody-coated magnetic beads was dispensed at 50 ul/well and incubated at room temperature for 2 h in a horizontal orbital microplate shaker at 800±500 rpm. The beads were washed using a magnetic device to prevent loss. The biotin-antibody was dispensed in 50 ul of each well and incubated at room temperature for 1 h in a shaker at 800±500 rpm. After washing, streptavidin-PE was added at 50 ul/well and incubated at room temperature for 30 min in a shaker under the same conditions. Finally, after washing, wash buffer (100 ul/well) was added to the plate and incubated in a shaker for 2 min. The Luminex™ 200 setting were set according to the manufacturer's protocol. The data was calculated with a standard five-parameter logistic nonlinear regression analysis of the data (xPonent software 4.2, USA). The levels of cytokine/chemokine are normalized to the live cell counts (1×10^5 cells/mL) and presented as concentrations per mL (pg/mL or ng/mL).

[1] = PBMC + LPS(5 ug/ml) + test article 0.001 uM, Mean
[2] = PBMC + LPS(5 ug/ml) + test article 0.001 uM, single replicates (1st, 2nd, 3rd)
[3] = PBMC + LPS(5 ug/ml) + test article 0.01 uM, Mean
[4] = PBMC + LPS(5 ug/ml) + test article 0.01 uM, single replicates (1st, 2nd, 3rd)
[5] = PBMC + LPS(5 ug/ml) + test article 0.1 uM, Mean
[6] = PBMC + LPS(5 ug/ml) + test article 0.1 uM, single replicates (1st, 2nd, 3rd)
[7] = PBMC + LPS(5 ug/ml) + test article 1 uM, Mean
[8] = PBMC + LPS(5 ug/ml) + test article 1 uM, single replicates (1st, 2nd, 3rd)
[9] = PBMC + LPS(5 ug/ml) + test article 10 uM, Mean
[10] = PBMC + LPS(5 ug/ml) + test article 10 uM, single replicates (1st, 2nd, 3rd)
[11] = PBMC + LPS(5 ug/ml) + test article 100 uM, Mean
[12] = PBMC + LPS(5 ug/ml) + test article 100 uM, single replicates (1st, 2nd, 3rd)

SMILES: CC(C)C[C@H](NC(=O)CNC(=O)[C@H](CC(C)C)NC(=O)[C@H](CCC(N)=O)NC(=O)CNC(=O)[C@@H]1C[C@@H](O)CN1)C(=O)N[C@@H](C)C(=O)NCC(=O)N1CCC[C@H]1C(=O)N[C@@H](CCCCN)C(=O)O [YDE-011] (H-[Hyp]GQLGLAGPK-OH)
- Concentration, IL-17A [1]: 3.3 pg/mL
- MFI, Bead name: IL-17A [1]: 1.8
- conc/live cell, IL-17A [1]: 0.6 pg/10^5
- Concentration, IL-17A [2]: 4.3 pg/ml and 2.7 pg/ml (2×)
- MFI, Bead name: IL-17A [2]: 2.5 and 1.5 (2×)
- conc/live cell, IL-17A [2]: 1.0 pg/10^5 and 0.5 pg/10^5 (2×)
- Concentration, IL-17A [3]: 2.1 pg/mL
- MFI, Bead name: IL-17A [3]: 1.2
- conc/live cell, IL-17A [3]: 0.4 pg/10^5
- Concentration, IL-17A [4]: 1.0 pg/ml (2×) and 4.3 pg/ml
- MFI, Bead name: IL-17A [4]: 0.5 (2×) and 2.5
- conc/live cell, IL-17A [4]: 0.2 pg/10^5 (2×) and 0.9 pg/10^5
- Concentration, IL-17A [5]: 1.6 pg/mL
- MFI, Bead name: IL-17A [5]: 0.8
- conc/live cell, IL-17A [5]: 0.3 pg/10^5
- Concentration, IL-17A [6]: 2.7 pg/ml and 1.0 pg/ml (2×)
- MFI, Bead name: IL-17A [6]: 1.5 and 0.5 (2×)
- conc/live cell, IL-17A [6]: 0.4 pg/10^5 and 0.2 pg/10^5 (2×)
- Concentration, IL-17A [7]: 3.8 pg/mL
- MFI, Bead name: IL-17A [7]: 2.2
- conc/live cell, IL-17A [7]: 0.8 pg/10^5
- Concentration, IL-17A [8]: 4.3 pg/ml (2×) and 2.7 pg/ml
- MFI, Bead name: IL-17A [8]: 2.5 (2×) and 1.5
- conc/live cell, IL-17A [8]: 0.8 pg/10^5 and 0.9 pg/10^5 and 0.6 pg/10^5
- Concentration, IL-17A [9]: 2.7 pg/mL
- MFI, Bead name: IL-17A [9]: 0.8
- conc/live cell, IL-17A [9]: 0.3 pg/10^5
- Concentration, IL-17A [10]: 2.7 pg/mL
- MFI, Bead name: IL-17A [10]: 1.5 (2×) and −0.5
- conc/live cell, IL-17A [10]: 0.5 pg/10^5 (2×) and 0.0 pg/10^5
- Concentration, IL-17A [11]: 1.0 pg/mL
- MFI, Bead name: IL-17A [11]: 0.2
- conc/live cell, IL-17A [11]: 0.1 pg/10^5
- Concentration, IL-17A [12]: 1.0 pg/mL
- MFI, Bead name: IL-17A [12]: 0.5 (2×) and −0.5
- conc/live cell, IL-17A [12]: 0.2 pg/10^5 (2×) and 0.0 pg/10^5
